Reference: ChEMBL document CHEMBL1201862, “PubChem BioAssay data set” (2004)
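Dose response: 5 concentrations. Exposure: 48 h. Format: 96-well plates. Endpoint: linear interpolation; highest concentration if not reached. GI50 marks 50% less growth.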 The source made the active and inactive calls. Cut-off read from the data, not from the text of the source: active = GI50 up to about 1.1 µM and inactive = higher.

How the values were obtained:
Test in all cases: growth of human tumour cells (NCI), 48 h
[1] = test system: EKVX
[2] = test system: OVCAR-3
[3] = test system: CAKI-1
[4] = test system: SNB-19
[5] = test system: UACC-257
[6] = test system: SF-268
[7] = test system: HCT-15
[8] = test system: M14
[9] = test system: KM-20L2
[10] = test system: NCI-H23
[11] = test system: SK-MEL-28
[12] = test system: NCI-H226
[13] = test system: HL-60
[14] = test system: KM12
[15] = test system: HOP-92
[16] = test system: 786-0
[17] = test system: K562
[18] = test system: HCC 2998

Compound | GI50 [1] | GI50 [2] | GI50 [3] | GI50 [4] | GI50 [5] | GI50 [6] | GI50 [7] [µM] | GI50 [8] | GI50 [9] | GI50 [10] | GI50 [11] | GI50 [12] | GI50 [13] | GI50 [14] | GI50 [15] | GI50 [16] | GI50 [17] | GI50 [18]
O=[N+]([O-])c1nccn1CC(O)c1ccc(F)cc1 (stereo not given) | > 100 µM (inactive) | > 100 µM (inactive) | > 100 µM (inactive) | > 100 µM (inactive) | > 100 µM (inactive) | > 100 µM (inactive) | > 100 | > 100 µM (inactive) | > 100 µM (inactive) | > 100 µM (inactive) | > 100 µM (inactive) | > 100 µM (inactive) | > 100 µM (inactive) | > 100 µM (inactive) | > 100 µM (inactive) | > 100 µM (inactive) | > 100 µM (inactive) | 
CCc1cccc(C)c1NC(=O)C(=O)Cc1nc2ccccc2o1 | > 100 µM (inactive) | > 100 µM (inactive) | > 100 µM (inactive) | > 100 µM (inactive) | > 100 µM (inactive) | > 100 µM (inactive) | > 100 | > 100 µM (inactive) | > 100 µM (inactive) | > 100 µM (inactive) | > 100 µM (inactive) | > 100 µM (inactive) | > 100 µM (inactive) |  | > 100 µM (inactive) | > 100 µM (inactive) | > 100 µM (inactive) | > 100 µM (inactive)
COc1ccc2c(c1)CCc1c(-c3n[nH]c4c3CCc3cc(OC)ccc3-4)n[nH]c1-2 | 31.3 µM (inactive) |  | 24.4 µM (inactive) | 76.9 µM (inactive) | 21.5 µM (inactive) | 37.1 µM (inactive) | 35.1 | 25.9 µM (inactive) | 47.5 µM (inactive) | 79.4 µM (inactive) | 33.8 µM (inactive) | 28.8 µM (inactive) | 27.5 µM (inactive) | 33.9 µM (inactive) | 30.8 µM (inactive) | 19 µM (inactive) | 8.89 µM (inactive) | > 100 µM (inactive)
O=C(Cc1ccccc1)NN1C(=O)C(Cl)C1c1cc(Br)cc(Br)c1O (stereo not given) | 7.76 µM (inactive) | 2.71 µM (inactive) | 25.8 µM (inactive) | 8.34 µM (inactive) | 11.5 µM (inactive) | 3.63 µM (inactive) | 6.79 | 14.8 µM (inactive) | 24.7 µM (inactive) | 12.2 µM (inactive) | 10.3 µM (inactive) | 14.7 µM (inactive) | 2.13 µM (inactive) | 40.1 µM (inactive) |  | 10.1 µM (inactive) | 6.44 µM (inactive) | 13.8 µM (inactive)
COc1cc2c(c(OC)c1OC)-c1ccc(SC)c(=O)cc1[C@@H](NC(=O)c1cccc([N+](=O)[O-])c1)CC2 | 0.0386 µM (active) | 0.0191 µM (active) | 0.049 µM (active) |  | < 0.01 µM (active) | 0.0214 µM (active) |  | 0.0154 µM (active) | 0.0172 µM (active) | < 0.01 µM (active) | 0.0414 µM (active) | < 0.01 µM (active) | < 0.01 µM (active) | < 0.01 µM (active) |  | 0.0351 µM (active) | < 0.01 µM (active) | 0.0207 µM (active)
C/C(CC(=O)Nc1cccc(Cl)c1C)=N\NC(=O)c1ccncc1 | > 100 µM (inactive) | > 100 µM (inactive) |  |  | > 100 µM (inactive) | > 100 µM (inactive) |  | > 100 µM (inactive) | > 100 µM (inactive) | 58.9 µM (inactive) | > 100 µM (inactive) | > 100 µM (inactive) | > 100 µM (inactive) | > 100 µM (inactive) | > 100 µM (inactive) | > 100 µM (inactive) | > 100 µM (inactive) | > 100 µM (inactive)
CSc1nc(-c2ccccc2)c2c(n1)-c1ccccc1CC2 | > 100 µM (inactive) | > 100 µM (inactive) | > 100 µM (inactive) | > 100 µM (inactive) | > 100 µM (inactive) | > 100 µM (inactive) |  | > 100 µM (inactive) | 78.5 µM (inactive) | > 100 µM (inactive) | > 100 µM (inactive) | > 100 µM (inactive) | > 100 µM (inactive) | > 100 µM (inactive) | > 100 µM (inactive) | > 100 µM (inactive) | > 100 µM (inactive) | 
OC1/C(=C/c2ccccc2)CNC/C1=C\c1ccccc1 (stereo not given) | > 100 µM (inactive) | > 100 µM (inactive) | 43.1 µM (inactive) | > 100 µM (inactive) | > 100 µM (inactive) | > 100 µM (inactive) | > 100 | > 100 µM (inactive) | > 100 µM (inactive) |  | > 100 µM (inactive) |  | 92.7 µM (inactive) | > 100 µM (inactive) | 96.8 µM (inactive) | > 100 µM (inactive) |  | > 100 µM (inactive)
CCN(CC)CCNc1ccc2nnn3c4ccc(OC)cc4c(=O)c1c23 |  | 13.5 µM (inactive) | 12.2 µM (inactive) | 11.4 µM (inactive) | 12.5 µM (inactive) | 7.33 µM (inactive) | 6.17 | 10.5 µM (inactive) | 5.27 µM (inactive) | 8.49 µM (inactive) | 15.6 µM (inactive) | 6.3 µM (inactive) | 3.94 µM (inactive) | 3.27 µM (inactive) | 6.07 µM (inactive) | 4.31 µM (inactive) | 3.78 µM (inactive) | 
